{"source": "patent US20200017496A1", "about": "(priority 2017, published 2020)", "key": {"[1]": {"test_system": "Serratia marcescens (SMA) isolates", "assay": "MIC of compounds alone and combined with antibacterials, broth microdilution (CLSI)", "format": "cell-based", "settings": "for MIC: Serratia marcescens", "summary_of_the_method": "(§1)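 Compound MIC, and antibacterial MIC at each fixed compound level, taken by visual inspection as lowest concentration stopping growth. Inoculum: log-phase bacteria, final 5·10^5 CFU/mL, cation-adjusted Mueller-Hinton broth; 16-20 h, 35° C, ambient air.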"}, "[2]": {"test_system": "Klebsiella pneumoniae (KPN) isolates", "assay": "MIC of compounds alone and combined with antibacterials, broth microdilution (CLSI)", "format": "cell-based", "settings": "for MIC ATB in combination: AF1 @ 4 μg/mL; for MIC: Klebsiella pneumoniae", "summary_of_the_method": "as §1"}}, "note": "Read-outs that look alike come from different tables or passages of the source.", "data": [{"compound": "CO/N=C(\\C(=O)N[C@@H]1C(=O)N2C(C(=O)O)=C(COC(N)=O)CS[C@H]12)c1ccco1", "note": "[FUR, Cefuroxime]", "values": [{"measurement": "MIC", "setting": "[1]", "value": "> 256", "unit": "µg/mL"}, {"measurement": "MIC", "setting": "[1]; ATB alone, strain SMA UFR238 (OXA-48), read-out: MIC", "value": "> 256", "unit": "µg/mL"}, {"measurement": "MIC", "setting": "[1]; strain SMA UFR30 (OXA-405), ATB alone, read-out: MIC", "value": "> 256", "unit": "µg/mL"}, {"measurement": "MIC", "setting": "[1]; strain SMA UFR134 (TEM-1, BES-1), ATB alone, read-out: MIC", "value": "> 256", "unit": "µg/mL"}, {"measurement": "MIC", "setting": "[1]; strain SMA UFR137 (SME-1), ATB alone, read-out: MIC", "value": 256, "unit": "µg/mL"}, {"measurement": "MIC", "setting": "[1]; strain SMA UFR138 (SME-1), ATB alone, read-out: MIC", "value": 256, "unit": "µg/mL"}, {"measurement": "MIC", "setting": "[1]; strain SMA UFR139 (SME-2), ATB alone, read-out: MIC", "value": "> 256", "unit": "µg/mL"}, {"measurement": "MIC", "setting": "[1]; strain SMA UFR141 (OXA-48), ATB alone, read-out: MIC", "value": "> 256", "unit": "µg/mL"}, {"measurement": "MIC", "setting": "[1]; strain SMA UFR142 (OXA-48), ATB alone, read-out: MIC", "value": "> 256", "unit": "µg/mL"}, {"measurement": "MIC", "setting": "[1]; strain SMA UFR143 (CTX-M-15, OXA-1, OXA-48), ATB alone, read-out: MIC", "value": "> 256", "unit": "µg/mL"}, {"measurement": "MIC", "setting": "[1]; strain SMA UFR239 (ESAC), ATB alone, read-out: MIC", "value": 256, "unit": "µg/mL"}, {"measurement": "MIC ATB in combination", "setting": "[1]; strain SMA UFR238, antibacterial combined with AF1 @ 4 μg/mL", "value": 64, "unit": "µg/mL"}, {"measurement": "MIC ATB in combination", "setting": "[2]; KPN 6299", "value": 16, "unit": "µg/mL"}, {"measurement": "MIC ATB in combination", "setting": "[2]; KPN 110376", "value": 4, "unit": "µg/mL"}, {"measurement": "MIC ATB in combination", "setting": "[2]; KPN 131119", "value": 8, "unit": "µg/mL"}, {"measurement": "MIC ATB in combination", "setting": "[2]; KPN 140513", "value": 32, "unit": "µg/mL"}, {"measurement": "MIC ATB in combination", "setting": "[2]; KPN 160143", "value": 4, "unit": "µg/mL"}, {"measurement": "MIC ATB in combination", "setting": "[2]; KPN 190128", "value": 16, "unit": "µg/mL"}, {"measurement": "MIC ATB in combination", "setting": "[2]; KPN 190270", "value": 16, "unit": "µg/mL"}, {"measurement": "MIC ATB in combination", "setting": "[2]; KPN 190425", "value": 4, "unit": "µg/mL"}, {"measurement": "MIC ATB in combination", "setting": "[2]; KPN 190551", "value": 4, "unit": "µg/mL"}, {"measurement": "MIC ATB in combination", "setting": "[2]; KPN 200047", "value": 2, "unit": "µg/mL"}, {"measurement": "MIC ATB in combination", "setting": "[2]; KPN 200327", "value": 2, "unit": "µg/mL"}, {"measurement": "MIC ATB in combination", "setting": "[2]; KPN 260251", "value": 8, "unit": "µg/mL"}, {"measurement": "MIC ATB in combination", "setting": "[2]; KPN 260252", "value": 32, "unit": "µg/mL"}, {"measurement": "MIC ATB in combination", "setting": "[2]; KPN 260376", "value": 2, "unit": "µg/mL"}, {"measurement": "MIC ATB in combination", "setting": "[2]; KPN 270077", "value": 16, "unit": "µg/mL"}, {"measurement": "MIC ATB in combination", "setting": "[2]; KPN 700603", "value": 16, "unit": "µg/mL"}, {"measurement": "MIC ATB in combination", "setting": "[2]; KPN ARA", "value": 16, "unit": "µg/mL"}, {"measurement": "MIC ATB in combination", "setting": "[2]; KPN BAA-1898", "value": 4, "unit": "µg/mL"}, {"measurement": "MIC ATB in combination", "setting": "[2]; KPN LIB", "value": 8, "unit": "µg/mL"}, {"measurement": "MIC ATB in combination", "setting": "[2]; KPN UFR22_O", "value": 8, "unit": "µg/mL"}, {"measurement": "MIC ATB in combination", "setting": "[2]; KPN UFR23", "value": 4, "unit": "µg/mL"}, {"measurement": "MIC ATB in combination", "setting": "[2]; KPN UFR24", "value": 16, "unit": "µg/mL"}, {"measurement": "MIC ATB in combination", "setting": "[2]; KPN UFR25", "value": 4, "unit": "µg/mL"}, {"measurement": "MIC ATB in combination", "setting": "[2]; KPN UFR27", "value": 32, "unit": "µg/mL"}, {"measurement": "MIC ATB in combination", "setting": "[2]; KPN UFR28", "value": 4, "unit": "µg/mL"}, {"measurement": "MIC ATB in combination", "setting": "[2]; KPN UFR65", "value": 16, "unit": "µg/mL"}, {"measurement": "MIC ATB in combination", "setting": "[2]; KPN UFR66", "value": 32, "unit": "µg/mL"}, {"measurement": "MIC ATB in combination", "setting": "[2]; KPN UFR67", "value": 32, "unit": "µg/mL"}, {"measurement": "MIC ATB in combination", "setting": "[2]; KPN UFR68", "value": 8, "unit": "µg/mL"}, {"measurement": "MIC ATB in combination", "setting": "[2]; KPN UFR76", "value": ">128", "unit": "µg/mL"}, {"measurement": "MIC ATB in combination", "setting": "[2]; KPN UFR77", "value": 32, "unit": "µg/mL"}, {"measurement": "MIC ATB in combination", "setting": "[2]; KPN UFR78", "value": ">128", "unit": "µg/mL"}, {"measurement": "MIC ATB in combination", "setting": "[2]; KPN UFR79", "value": 32, "unit": "µg/mL"}, {"measurement": "MIC ATB in combination", "setting": "[2]; KPN UFR80", "value": 16, "unit": "µg/mL"}, {"measurement": "MIC ATB in combination", "setting": "[2]; KPN UFR81", "value": 32, "unit": "µg/mL"}, {"measurement": "MIC ATB in combination", "setting": "[2]; KPN UFR215", "value": 16, "unit": "µg/mL"}, {"measurement": "MIC ATB in combination", "setting": "[2]; KPN UFR216", "value": 4, "unit": "µg/mL"}, {"measurement": "MIC ATB in combination", "setting": "[2]; KPN UFR217", "value": 2, "unit": "µg/mL"}, {"measurement": "MIC ATB in combination", "setting": "[2]; KPN UFR219", "value": 8, "unit": "µg/mL"}, {"measurement": "MIC ATB in combination", "setting": "[2]; KPN UFR220", "value": 16, "unit": "µg/mL"}, {"measurement": "MIC ATB in combination", "setting": "[2]; KPN UFR221", "value": 4, "unit": "µg/mL"}, {"measurement": "MIC ATB in combination", "setting": "[2]; KPN UFR222", "value": 64, "unit": "µg/mL"}, {"measurement": "MIC ATB in combination", "setting": "[2]; KPN UFR227O", "value": 64, "unit": "µg/mL"}, {"measurement": "MIC", "setting": "[2]", "value": "> 256", "unit": "µg/mL"}, {"measurement": "MIC", "setting": "[2]; BAA1898, strain KPN BAA-1898 (TEM-1, SHV-11, SHV-12, KPC-2), ATB alone, read-out: MIC", "value": "> 512", "unit": "µg/mL"}, {"measurement": "MIC", "setting": "[2]; strain KPN 6299 (TEM-1, SHV-11, OXA-163), ATB alone, read-out: MIC", "value": "> 512", "unit": "µg/mL"}, {"measurement": "MIC", "setting": "[2]; strain KPN 700603 (SHV-18, OXA-2), ATB alone, read-out: MIC", "value": 32, "unit": "µg/mL"}, {"measurement": "MIC", "setting": "[2]; strain KPN LIB (SHV-11, OXA-48), ATB alone, read-out: MIC", "value": 16, "unit": "µg/mL"}, {"measurement": "MIC", "setting": "[2]; strain KPN UFR22_O (TEM-1, SHV-1, OXA-48), ATB alone, read-out: MIC", "value": 32, "unit": "µg/mL"}, {"measurement": "MIC", "setting": "[2]; strain KPN UFR23 (TEM-1, SHV-1, OXA-48), ATB alone, read-out: MIC", "value": 8, "unit": "µg/mL"}, {"measurement": "MIC", "setting": "[2]; strain KPN UFR24 (TEM-1, SHV-2, SHV-11, OXA-1, OXA-48, OXA-47), ATB alone, read-out: MIC", "value": 128, "unit": "µg/mL"}, {"measurement": "MIC", "setting": "[2]; strain KPN UFR77 (CMY-2), ATB alone, read-out: MIC", "value": 64, "unit": "µg/mL"}, {"measurement": "MIC", "setting": "[2]; strain KPN UFR80 (SHV-11, DHA-1, OXA-1), ATB alone, read-out: MIC", "value": 32, "unit": "µg/mL"}]}]}
